Results published in US20050209157A1, “Short bioactive peptides and methods for their use” (priority 2001, published 2005).
Converted amounts (≈) assume the structure as drawn. No end group written: not given here.

Key:
[1] = test system: Pseudomonas aeruginosa ATCC 9027; assay: Antimicrobial assay I, MIC by OD measurement; format: cell-based; conditions: 37° C. for 24 hours, absorbance 620 nm
Text: (§1) The data for the following antimicrobial assay of the peptides have been obtained by making OD measurements in in vitro cell culture experiments with and without added peptide. The protocol used is as follows.
(§2) Cell lines included Staphylococcus aureus ATCC 6538 or 25923, Pseudomonas aeruginosa ATCC 9027 or 27853. Medium used were Antibiotic Medium 3 (Difco), Antibiotic Medium 2 (Difco), and 0.85% saline. Controls used were physiological saline, and gentamycin at 50, 25, 10, 5, 1, and 0.1 ppm.
(§3) Absorbance was read at 620 nm after shaking to resuspend cells.
(§4) Staph6538 is Staphylococcus aureus ATCC accession number 6538; paerug9027 is Pseudomonas aeruginosa ATCC accession number 9027, yeast is Saccharomyces cerevisiae.

[2] = test system: Staphylococcus aureus ATCC 6538; assay: Antimicrobial assay I, MIC by OD measurement; format: cell-based; conditions: 37° C. for 24 hours, absorbance 620 nm
Text: as §1, §2, §3, §4

[3] = test system: yeast (Saccharomyces cerevisiae); assay: Antimicrobial assay I, yeast assay in RPMI 1640; format: cell-based; conditions: RPMI 1640 media
Protocol: as §1, §3
The yeast assay was performed in RPMI 1640 media (pH 7.0 at 25° C.).
as §4

[4] = test system: WI38; conditions: MTT, 24 hours with peptide; for WI38 LD50: normal fibroblast line
[5] = in vitro; conditions: human, WI38 normal lung fibroblast cells, LD50 WI38, WI38 normal lung fibroblast line, MTT, 24 hours with peptide
[6] = test system: HeLaS3; assay: Anti-cancer assay, MTT, LD50; format: cell-based; conditions: 24 hours with peptide, cervical carcinoma
Text: (§5) Numbers are LD50 values (μg/mL).

[7] = test system: PC3; assay: Anti-cancer assay, MTT, LD50; format: cell-based; conditions: 24 hours with peptide, prostate adenocarcinoma
Text: as §5

[8] = test system: MCF7; assay: Anti-cancer assay, MTT, LD50; format: cell-based; conditions: MCF7 breast adenocarcinoma line, MTT, 24 hours with peptide
Text: as §5

[9] = test system: H1299; assay: Anti-cancer assay, MTT, LD50; format: cell-based; conditions: 24 hours with peptide, lung large cell carcinoma
Text: as §5

[10] = test system: SW480; assay: Anti-cancer assay, MTT, LD50; format: cell-based; conditions: SW480 colon adenocarcinoma line, 24 hours with peptide
Text: as §5

[11] = test system: BMKC; assay: Anti-cancer assay, MTT, LD50; format: cell-based; conditions: BMKC cloned melanoma line, 24 hours with peptide
Text: as §5

[12] = in vitro; format: cell-based, human; conditions: human, human red blood cells, pH 7, hemolytic assay, concentration at 50% hemolysis, 1 hour at 37° C.; read-out: LD50
Protocol: This hemolytic assay is based upon that presented in Journal of Peptide Research 53: 82-90 (1999). […] All procedures were performed according to safety protocols pertaining to the handling and disposal of human body fluids.
Red blood cells (RBCs) were washed three times with PBS (35 mM phosphate buffer 0.15 M NaCl, pH 7.0). RBCs suspended in PBS (0.4% (v/v); about 10 ml per 15 peptides) were prepared. Suspensions (100 μl) were aliquoted to each sample and control tube. Serially diluted peptide solutions (100 μl) were pipetted into the sample tubes. Negative control tubes contained 100 μl PBS; positive control tubes contained 100 μl 1% Triton-X100 detergent. All tubes were incubated for 1 hour at 37° C. The tubes were removed from the incubator and centrifuged at 1000 g for 5 minutes. Supernatant (100 μl) was pipetted to a 96-well polyvinyl chloride plate. The absorbance at 414 nm (A414) was measured, and used to calculate the percent hemolysis according to the following formula. [formula]

Molecule | paerug9027 (MIC) [1] | staph6538 (MIC) [2] | yeast (MIC or MFC) [3] | WI38 LD50 [4] | CC50 at 24 h [5] | HeLaS3 LD50 [6] | PC3 LD50 [7] | LD50 MCF7 [8] | H1299 LD50 [9] | LD50 SW480 [10] | LD50 BMKC [11] | HC50 at 1 h [12] | LD50 WI38 ([4]; WI38 normal lung fibroblast line)
CC(C)C[C@H](NC(=O)[C@H](C)NC(=O)[C@H](CCCCN)NC(=O)[C@H](CC(C)C)NC(=O)[C@H](C)NC(=O)[C@H](CC(C)C)NC(=O)[C@H](C)NC(=O)[C@H](CCCCN)NC(=O)[C@H](CC(C)C)NC(=O)[C@H](C)NC(=O)[C@H](CC(C)C)NC(=O)[C@H](C)NC(=O)[C@H](CC(C)C)NC(=O)[C@H](CCCCN)NC(=O)[C@H](C)NC(=O)[C@H](CC(C)C)NC(=O)[C@H](CCCCN)NC(=O)[C@H](CCCCN)NC(=O)[C@H](C)NC(=O)[C@H](CC(C)C)NC(=O)[C@H](CCCCN)NC(=O)[C@H](CCCCN)NC(=O)[C@H](CC(C)C)NC(=O)[C@H](CCCCN)NC(=O)[C@H](CCCCN)NC(=O)[C@H](C)NC(=O)[C@H](CC(C)C)NC(=O)[C@H](CCCCN)NC(=O)[C@H](CCCCN)NC(=O)[C@H](C)NC(=O)[C@@H](N)Cc1ccccc1)C(N)=O [P98, reference compound] | > (> indicates greater than 200 μg/mL) | > (> indicates greater than 200 μg/mL) | > (> indicates greater than 200 μg/mL) | 47 µg/mL | 47 µg/mL (≈ 14 µM) | 175 µg/mL | 52 µg/mL | 96 µg/mL | 53 µg/mL | 125 µg/mL | 94 µg/mL | 60 µg/mL | 
CC[C@H](C)[C@H](NC(=O)CN)C(=O)NCC(=O)N[C@@H](C)C(=O)N[C@H](C(=O)N[C@@H](CC(C)C)C(=O)N[C@@H](CCCCN)C(=O)N[C@H](C(=O)N[C@@H](CC(C)C)C(=O)N[C@H](C(=O)N[C@H](C(=O)NCC(=O)N[C@@H](CC(C)C)C(=O)N1CCC[C@H]1C(=O)N[C@@H](C)C(=O)N[C@@H](CC(C)C)C(=O)N[C@H](C(=O)N[C@@H](CO)C(=O)N[C@@H](Cc1c[nH]c2ccccc12)C(=O)N[C@H](C(=O)N[C@@H](CCCCN)C(=O)N[C@@H](CCCNC(=N)N)C(=O)N[C@@H](CCCCN)C(=O)N[C@@H](CCCNC(=N)N)C(=O)N[C@@H](CCC(N)=O)C(=O)N[C@@H](CCC(N)=O)C(N)=O)[C@@H](C)CC)[C@@H](C)CC)[C@@H](C)O)[C@@H](C)O)C(C)C)C(C)C [P108, reference compound] | > (> indicates greater than 200 μg/mL) | 5 µg/mL | 25 µg/mL |  |  |  |  |  |  |  |  |  | 
FAFGKGIGKIGKKGL-NH2 [P138] | > (> indicates greater than 200 μg/mL) | > (> indicates greater than 200 μg/mL) | > (> indicates greater than 200 μg/mL) | > (> indicates greater than 1000) |  | > (> indicates greater than 1000) | > (> indicates greater than 1000) | > (> indicates greater than 1000) | > (> indicates greater than 1000) | > (> indicates greater than 1000) | > (> indicates greater than 1000) | 20 µg/mL | > (> indicates greater than 1000)
FAKKLAKKLKKLAKKLAKKWKL-NH2 [P70] | > (> indicates greater than 200 μg/mL) | 10 µg/mL | 100 µg/mL | 34 µg/mL | 34 µg/mL | 28 µg/mL | 82 µg/mL | 44 µg/mL | 63 µg/mL | 11 µg/mL | 94 µg/mL | 80 µg/mL | 
FAKKLAKKLKKLAKKLIGAVLKV-OH [P99] | > (> indicates greater than 200 μg/mL) | 100 µg/mL | > (> indicates greater than 200 μg/mL) |  |  |  |  |  |  |  |  | 25 µg/mL | 
FAKKLAKLAKKLLAL-NH2 [P38, FAKKLAKLAKKLLAL-NH2] | 50 µg/mL | 5 µg/mL | 50 µg/mL | 12 µg/mL | 12 µg/mL | 35 µg/mL | 10 µg/mL | 17 µg/mL | 33 µg/mL | 13 µg/mL | 21 µg/mL | 350 µg/mL | 
FAKLLAKLAK-NH2 [P123] | 200 µg/mL | 50 µg/mL | 100 µg/mL | 600 µg/mL | 600 µg/mL | 940 µg/mL | > (> indicates greater than 1000) | 615 µg/mL | > (> indicates greater than 1000) | > (> indicates greater than 1000) | 635 µg/mL | 1000 µg/mL | 
